According to ChEMBL document CHEMBL1759865, “Synthesis, biological assessment and molecular modeling of 14-aryl-10,11,12,14-tetrahydro-9H-benzo[5,6]chromeno[2,3-b]quinolin-13-amines” (Bioorg Med Chem Lett, 2011):
Active and inactive are the calls of the source. The rule behind the calls is not given here.

Experiments:
[1] = Inhibition of […]-induced intracellular Ca2+ uptake in bovine Chromaffin cells at 100 uM; type: functional; conditions: Bos taurus
SH-SY5Y = assay: Neuroprotective activity in human SH-SY5Y cells by MTT assay; type: functional
Bos taurus = organism: Bos taurus; assay: Inhibition of K(+)-induced intracellular Ca2+ uptake in bovine Chromaffin cells at 100 uM; type: functional, cell-based
Acetylcholinesterase [2] = molecular target: T1, Acetylcholinesterase (Electrophorus electricus, UniProt O42275)
Description: Inhibition of Electrophorus electricus acetylcholinesterase preincubated with compound for 10 mins using acetylcholine iodide as substrate after 15 mins by spectrophotometric analysis

Cholinesterase = Cholinesterase (Equus caballus, UniProt P81908)
Description: Inhibition of horse serum butyrylcholinesterase preincubated with compound for 10 mins using butrylcholine iodide as substrate after 15 mins by spectrophotometric analysis

[3] = molecular target: Acetylcholinesterase (Electrophorus electricus) (UniProt O42275); assay: Ratio of compound IC50 to tacrine IC50 for Electrophorus electricus acetylcholinesterase
Acetylcholinesterase [4] = molecular target: T1, Acetylcholinesterase; assay: Mixed inhibition of Electrophorus electricus acetylcholinesterase using […] substrate by Ellman's method
[5] = molecular target: T2, Acetylcholinesterase (Bos taurus) (UniProt P23795); assay: Displacement of propidium iodide from peripheral anionic site of bovine erythrocyte AChE at 0.1 to 3 uM after 20 hrs by fluorescence plate reader
T2 sequence (whole entry): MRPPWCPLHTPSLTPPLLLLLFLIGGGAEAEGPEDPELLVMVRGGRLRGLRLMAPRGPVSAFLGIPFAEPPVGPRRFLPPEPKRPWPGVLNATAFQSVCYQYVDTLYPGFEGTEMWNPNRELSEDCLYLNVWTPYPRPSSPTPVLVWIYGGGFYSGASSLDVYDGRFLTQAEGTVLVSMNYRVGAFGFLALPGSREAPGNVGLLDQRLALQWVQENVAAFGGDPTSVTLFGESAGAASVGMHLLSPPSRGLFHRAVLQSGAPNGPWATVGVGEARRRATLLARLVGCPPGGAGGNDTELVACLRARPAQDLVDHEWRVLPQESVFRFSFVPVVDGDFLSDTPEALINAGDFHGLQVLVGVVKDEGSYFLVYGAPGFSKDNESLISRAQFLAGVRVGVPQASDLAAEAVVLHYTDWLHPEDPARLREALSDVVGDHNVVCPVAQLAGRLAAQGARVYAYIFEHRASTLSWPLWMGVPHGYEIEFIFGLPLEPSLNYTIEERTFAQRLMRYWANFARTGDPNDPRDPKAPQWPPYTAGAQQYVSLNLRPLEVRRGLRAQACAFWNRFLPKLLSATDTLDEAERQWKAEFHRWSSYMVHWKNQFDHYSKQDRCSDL

T1 sequence (O42275 whole entry): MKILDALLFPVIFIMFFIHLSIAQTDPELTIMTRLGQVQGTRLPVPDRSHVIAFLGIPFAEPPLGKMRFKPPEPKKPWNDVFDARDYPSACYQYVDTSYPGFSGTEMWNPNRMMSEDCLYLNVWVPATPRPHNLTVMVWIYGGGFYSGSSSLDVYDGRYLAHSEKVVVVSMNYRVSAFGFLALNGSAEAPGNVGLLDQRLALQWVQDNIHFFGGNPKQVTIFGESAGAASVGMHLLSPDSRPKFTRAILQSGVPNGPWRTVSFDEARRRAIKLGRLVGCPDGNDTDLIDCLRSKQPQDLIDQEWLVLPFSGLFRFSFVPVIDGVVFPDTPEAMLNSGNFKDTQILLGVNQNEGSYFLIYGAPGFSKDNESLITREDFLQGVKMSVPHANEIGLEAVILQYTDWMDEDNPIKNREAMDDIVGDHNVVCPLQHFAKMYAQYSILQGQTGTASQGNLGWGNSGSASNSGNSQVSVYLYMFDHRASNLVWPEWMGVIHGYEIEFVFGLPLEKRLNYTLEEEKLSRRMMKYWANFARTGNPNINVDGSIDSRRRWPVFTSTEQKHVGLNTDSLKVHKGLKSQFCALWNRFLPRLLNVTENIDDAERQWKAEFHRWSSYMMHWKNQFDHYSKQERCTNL
Cholinesterase, sequence (P81908 whole entry): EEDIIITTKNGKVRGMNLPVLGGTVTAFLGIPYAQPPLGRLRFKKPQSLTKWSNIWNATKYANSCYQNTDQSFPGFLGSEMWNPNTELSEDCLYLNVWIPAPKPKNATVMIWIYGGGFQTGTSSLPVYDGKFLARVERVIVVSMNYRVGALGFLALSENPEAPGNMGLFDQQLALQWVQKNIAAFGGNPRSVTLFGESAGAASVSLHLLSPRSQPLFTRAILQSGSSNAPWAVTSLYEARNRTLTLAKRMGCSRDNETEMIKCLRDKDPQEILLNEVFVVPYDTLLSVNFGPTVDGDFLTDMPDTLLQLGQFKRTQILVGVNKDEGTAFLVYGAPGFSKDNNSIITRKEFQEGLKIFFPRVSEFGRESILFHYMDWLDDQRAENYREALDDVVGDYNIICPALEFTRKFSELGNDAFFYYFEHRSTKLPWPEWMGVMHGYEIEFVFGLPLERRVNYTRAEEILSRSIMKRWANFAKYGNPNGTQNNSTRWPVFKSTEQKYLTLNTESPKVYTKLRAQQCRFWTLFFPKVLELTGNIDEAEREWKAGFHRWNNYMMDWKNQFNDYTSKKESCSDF
Acetylcholinesterase (Electrophorus electricus), sequence (O42275 24-633 limits assumed): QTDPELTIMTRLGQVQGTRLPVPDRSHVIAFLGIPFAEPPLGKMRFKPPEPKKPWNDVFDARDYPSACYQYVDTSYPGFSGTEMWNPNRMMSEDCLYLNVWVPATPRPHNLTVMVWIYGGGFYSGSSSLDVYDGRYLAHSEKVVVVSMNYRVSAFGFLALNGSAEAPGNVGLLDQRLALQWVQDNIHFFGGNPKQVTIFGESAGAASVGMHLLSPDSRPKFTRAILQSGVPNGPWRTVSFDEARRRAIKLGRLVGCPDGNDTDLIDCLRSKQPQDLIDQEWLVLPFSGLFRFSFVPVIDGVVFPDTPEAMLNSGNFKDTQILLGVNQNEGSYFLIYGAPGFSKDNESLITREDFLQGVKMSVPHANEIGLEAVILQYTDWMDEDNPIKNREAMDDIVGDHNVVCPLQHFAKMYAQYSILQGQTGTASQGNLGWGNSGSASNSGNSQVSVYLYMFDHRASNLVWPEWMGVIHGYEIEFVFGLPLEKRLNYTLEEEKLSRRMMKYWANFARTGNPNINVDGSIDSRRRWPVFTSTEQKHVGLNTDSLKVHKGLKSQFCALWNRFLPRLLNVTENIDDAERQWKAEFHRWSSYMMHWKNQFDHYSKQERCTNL

CCOC(=O)C1=C(C)Oc2nc3c(c(N)c2C1c1ccc(OC)cc1)CCCC3 (centres undefined)
inhibition at 100 µM [1]: 90%

Cc1ccc(C2c3c(nc4c(c3N)CCCC4)Oc3ccc4ccccc4c32)cc1 (racemic)
Activity (SH-SY5Y): <17% | Activity (Bos taurus): inactive | IC50 (Acetylcholinesterase [2]): 43 nM | IC50 (Cholinesterase): > 10000 nM

Nc1c2c(nc3c1C(c1ccc(O)cc1)c1c(ccc4ccccc14)O3)CCCC2 (racemic)
Ratio IC50 [3]: 4 | Ki (Acetylcholinesterase [4]): 5 nM | Activity [5]: inactive | Activity (SH-SY5Y): <17% | Activity (Bos taurus): inactive | IC50 (Acetylcholinesterase [2]): 7 nM | IC50 (Cholinesterase): > 10000 nM

COc1ccc(C2c3c(nc4c(c3N)CCCC4)Oc3ccc4ccccc4c32)cc1 (racemic)
Activity (SH-SY5Y): <17% | Activity (Bos taurus): inactive | IC50 (Acetylcholinesterase [2]): 18 nM | IC50 (Cholinesterase): > 10000 nM

COc1cccc(C2c3c(nc4c(c3N)CCCC4)Oc3ccc4ccccc4c32)c1 (racemic)
Activity (SH-SY5Y): <17% | Activity (Bos taurus): inactive | IC50 (Acetylcholinesterase [2]): 16 nM | IC50 (Cholinesterase): > 10000 nM

COc1ccccc1C1c2c(nc3c(c2N)CCCC3)Oc2ccc3ccccc3c21 (racemic)
Activity (SH-SY5Y): <17% | Activity (Bos taurus): inactive | IC50 (Acetylcholinesterase [2]): 20 nM | IC50 (Cholinesterase): > 10000 nM

COc1cc(C2c3c(nc4c(c3N)CCC4)Oc3ccc4ccccc4c32)ccc1O (racemic)
Activity (SH-SY5Y): <17% | Activity (Bos taurus): inactive | IC50 (Acetylcholinesterase [2]): 101 nM | IC50 (Cholinesterase): > 10000 nM

COc1cc(C2c3c(nc4c(c3N)CCCC4)Oc3ccc4ccccc4c32)ccc1O (racemic)
Activity (SH-SY5Y): <17% | Activity (Bos taurus): inactive | IC50 (Acetylcholinesterase [2]): 28 nM | IC50 (Cholinesterase): > 10000 nM

COc1ccc(C2c3c(nc4c(c3N)CCCC4)Oc3ccc4ccccc4c32)cc1OC (racemic)
Activity (SH-SY5Y): <17% | Activity (Bos taurus): inactive | IC50 (Acetylcholinesterase [2]): 26 nM | IC50 (Cholinesterase): > 10000 nM

COc1cc(C2c3c(nc4c(c3N)CCCC4)Oc3ccc4ccccc4c32)cc(OC)c1OC (racemic)
Activity (SH-SY5Y): <17% | Activity (Bos taurus): inactive | IC50 (Acetylcholinesterase [2]): 26 nM | IC50 (Cholinesterase): > 10000 nM

Nc1c2c(nc3c1C(c1ccc([N+](=O)[O-])cc1)c1c(ccc4ccccc14)O3)CCCC2 (racemic)
Activity (SH-SY5Y): <17% | Activity (Bos taurus): inactive | IC50 (Acetylcholinesterase [2]): 170 nM | IC50 (Cholinesterase): > 10000 nM
